Assay results reported in patent US20240352000A1, “NOVEL PYRIMIDINE-2,4-DIAMINE DERIVATIVES, PREPARATION METHOD THEREFOR, AND PHARMACEUTICAL COMPOSITION CONTAINING SAME AS ACTIVE INGREDIENT FOR PREVENTION OR TREATMENT OF CANCER” (KOREA RESEARCH INSTITUTE OF CHEMICAL TECHNOLOGY, priority 2021, published 2024).
pIC50: −log10 of the molar value.

Key:
Ba/F3 EGFR del19 = assay: CellTiter-Glo cell viability, Ba/F3 EGFR del19; assay type: cell-based; settings: 72 hours
Procedure: (§1) An experiment to measure the activity of the compounds of the present invention against the mutant Ba/F3 EGFR cell line was performed as follows using the CellTiter-Glo system sold by Promega. The CellTiter-Glo assay is a method to confirm the cell viability by measuring ATP present in cells in cell culture. For the Ba/F3 EGFR del19, Ba/F3 EGFR del19/T790M, Ba/F3 del19/T790M/C797S mutant cell line, a cell line provided by Crown Bioscience was purchased and used. The Ba/F3 EGFR del19, Ba/F3 EGFR del19/T790M, Ba/F3 del19/T790M/C797S mutant cell line was cultured in RPMI containing 10% FBS and 1% penicillin-streptomycin with 1 μg of puromycin in an incubator at 37° C. and 5% CO2.
(§2) Analysis of the inhibitory ability effect of the compounds against EGFR was conducted according to the following analysis reaction recipe.
(§3) 2500 cells/90 μL were passaged and cultured in a 96-well cell culture plate, and after 24 hours, treated with the compound represented by Formula 1 at a concentration of 0, 0.01, 0.03, 0.1, 0.3, 1, 3, and 10 (μM). After reaction for 72 hours, the plate treated with the compound was left at room temperature for 30 minutes, then further treated with 100 μl of reagent, and shaken at room temperature for 10 minutes. Finally, the ratio of fluorescence values at 570 nm was obtained using the equipment to quantitatively measure and confirmed the inhibitory ability of the compounds. The measurement values measured at eight compound concentrations were analyzed using the Prism program (version 5.01, Graphpad Software, Inc.), and the IC50 value, which is an indicator of the inhibitory ability of the compound, was calculated.

Ba/F3 EGFR del19/T790M = assay: CellTiter-Glo cell viability, Ba/F3 EGFR del19/T790M; assay type: cell-based; settings: 72 hours
Procedure: as §1, §2, §3

[1] = system: Ba/F3 EGFR del19/T790M/C797S; assay: CellTiter-Glo cell viability, Ba/F3 EGFR del19/T790M/C797S; assay type: cell-based; settings: 72 hours
Procedure: as §1, §2, §3

Ba/F3 EGFR L858R = assay: CellTiter-Glo cell viability, Ba/F3 EGFR L858R; assay type: cell-based; settings: 72 hours
Procedure: (§4) An experiment to measure the activity of the compounds of the present invention against the mutant Ba/F3 EGFR cell line was performed as follows using the CellTiter-Glo system sold by Promega. The CellTiter-Glo assay is a method to confirm the cell viability by measuring ATP present in cells in cell culture. The Ba/F3 EGFR L858R, Ba/F3 EGFR L858R/T790M, Ba/F3 EGFR L858R/T790M/C797S mutant cell line was used. The Ba/F3 EGFR L858R, Ba/F3 EGFR L858R/T790M, and Ba/F3 EGFR L858R/T790M/C797S mutant cell lines was cultured in RPMI containing 10% FBS and 1% penicillin-streptomycin with 1 μg of puromycin in an incubator at 37° C. and 5% CO2.
as §2
as §3, with “μl” for “μL”

Ba/F3 EGFR L858R/T790M = assay: CellTiter-Glo cell viability, Ba/F3 EGFR L858R/T790M; assay type: cell-based; settings: 72 hours
Procedure: as §4, §2
as §3, with “μl” for “μL”

[2] = system: Ba/F3 EGFR L858R/T790M/C797S; assay: CellTiter-Glo cell viability, Ba/F3 EGFR L858R/T790M/C797S; assay type: cell-based; settings: 72 hours
Procedure: as §4, §2
as §3, with “μl” for “μL”

EGFR A763_Y764insFHEA = EGFR A763_Y764insFHEA (Homo sapiens (Human), UniProt P00533, INS763FHEA); assay: HTRF enzyme assay, EGFR Ex20 insertion mutant enzyme; assay type: biochemical; settings: recombinant enzyme, 37° C. 2 hours
Chain of EGFR A763_Y764insFHEA (P00533 other isoform, or with tags, fused parts or gaps del 1-694/ins FHEA behind 763 limits assumed): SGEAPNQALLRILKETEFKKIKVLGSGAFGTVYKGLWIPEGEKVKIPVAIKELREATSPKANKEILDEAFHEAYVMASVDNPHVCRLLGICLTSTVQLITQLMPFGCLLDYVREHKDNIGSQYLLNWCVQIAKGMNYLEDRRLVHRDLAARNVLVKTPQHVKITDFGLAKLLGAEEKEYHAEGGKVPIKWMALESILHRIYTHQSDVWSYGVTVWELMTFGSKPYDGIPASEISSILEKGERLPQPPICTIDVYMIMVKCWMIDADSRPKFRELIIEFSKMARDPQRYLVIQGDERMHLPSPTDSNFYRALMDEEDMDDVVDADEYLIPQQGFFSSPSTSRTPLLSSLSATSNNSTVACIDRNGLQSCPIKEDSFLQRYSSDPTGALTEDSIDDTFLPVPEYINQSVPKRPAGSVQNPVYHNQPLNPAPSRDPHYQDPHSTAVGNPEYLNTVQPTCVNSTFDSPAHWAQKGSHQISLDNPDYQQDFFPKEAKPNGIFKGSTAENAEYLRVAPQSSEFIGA
Procedure: An experiment to measure the activity of the compounds of the present invention against EGFR mutant enzymes was performed as follows using the HTRF system sold by Cisbio. For the EGFR mutant enzyme, EGFR A763_Y764insFHEA enzyme, a recombinant protein provided by SignalChem was purchased and used.
(§5) The composition of the assay buffer used for measuring the activity was 50 mM Tris-HCl pH 7.5, 100 mM NaCl, 7.5 mM MgCl2, 3 mM KCl, 0.01% Tween 20, 0.1% BSA, and 1 mM DTT. Here, an enzyme reaction was performed using ATP at a concentration of […] and a peptide substrate labeled with biotin at a concentration of […]. Analysis of the inhibitory effect of the compounds against the EGFR activity was conducted according to the following analysis reaction recipe. • Component 1: 4 μL of an EGFR mutant enzyme • Component 2: 2 μL of a compound solution • Component 3: 4 μL of ATP and a peptide labeled with biotin
(§6) The enzyme reaction was started by first mixing Component 1 and Component 2 and then adding Component 3. After reaction at 37° C. for 2 hours, […] of measurement solution consisting of streptavidin-XL665 and europium-labeled anti-phosphotyrosine antibody provided by Cisbio was added to the enzyme reaction solution and reacted at room temperature for 1 hour. Finally, the ratio of fluorescence values at 615 nm and 665 nm was obtained using the Envision equipment from Perkin-Elmer to quantitatively measure the enzyme activity and confirmed the inhibitory ability of the compounds. The measurement values measured at seven compound concentrations were analyzed using the Prism program (version 5.01, Graphpad Software, Inc.), and the IC50 value, which is an indicator of the inhibitory ability of the compound, was calculated.

[3] = system: Ba/F3 EGFR V769_D770insASV; assay: CellTiter-Glo cell growth, Ba/F3 EGFR Ex20 insertion mutant; assay type: cell-based; settings: 72 hours
Procedure: as §1, with “the” for “the mutant”, “EGFR V769_D770insASV mutant” for “EGFR”, “EGFR V769_D770insASV” for “EGFR del19, Ba/F3 EGFR del19/T790M, Ba/F3 del19/T790M/C797S”, “1 μg/ml” for “1 μg”
Analysis of the inhibitory ability effect of the compounds against the EGFR mutant cell growth was conducted according to the following analysis reaction recipe.
as §3, with “1000 cells/100 μL were” for “2500 cells/90 μL were”, “[…]. After reaction” for “and 10 (μM). After reaction”, “with 100 μL of reagent,” for “with 100 μl of reagent,”, “confirmed the cell growth inhibitory ability” for “confirmed the inhibitory ability”, “of the cell growth inhibitory ability” for “of the inhibitory ability”

HER2 A775_G776insYVMA = HER2 A775_G776insYVMA (Homo sapiens (Human), UniProt P04626, INS775YVMA); assay: HTRF enzyme assay, HER2 mutant enzyme; assay type: biochemical; settings: recombinant enzyme, 37° C. 2 hours
Chain of HER2 A775_G776insYVMA (P04626 other isoform, or with tags, fused parts or gaps del 1-675/ins YVMA behind 775 limits assumed): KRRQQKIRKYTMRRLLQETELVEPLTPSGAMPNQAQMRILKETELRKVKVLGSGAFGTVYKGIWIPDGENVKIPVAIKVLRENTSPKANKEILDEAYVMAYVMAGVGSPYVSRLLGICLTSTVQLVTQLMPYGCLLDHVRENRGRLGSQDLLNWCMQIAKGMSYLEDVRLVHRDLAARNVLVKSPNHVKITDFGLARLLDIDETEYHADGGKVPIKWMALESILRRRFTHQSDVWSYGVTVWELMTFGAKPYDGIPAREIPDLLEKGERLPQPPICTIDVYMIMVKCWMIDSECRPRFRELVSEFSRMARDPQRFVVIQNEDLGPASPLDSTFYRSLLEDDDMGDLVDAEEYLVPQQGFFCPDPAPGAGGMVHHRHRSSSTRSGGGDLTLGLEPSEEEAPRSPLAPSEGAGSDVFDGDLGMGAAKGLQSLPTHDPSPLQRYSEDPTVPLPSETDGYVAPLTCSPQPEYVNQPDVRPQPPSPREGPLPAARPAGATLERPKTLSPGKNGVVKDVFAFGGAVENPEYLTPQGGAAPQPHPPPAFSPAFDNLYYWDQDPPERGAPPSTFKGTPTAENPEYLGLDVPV
Procedure: An experiment to measure the activity of the compounds of the present invention against HER mutant enzymes was performed as follows using the HTRF system sold by Cisbio. For the HER2 mutant enzyme, HER2 A775_G776insYVMA mutant enzyme, a recombinant protein provided by Carna Biosciences was purchased and used.
as §5, with “performed using with ATP at” for “performed using ATP at”, “substrate labeled biotin at” for “substrate labeled with biotin at”, “against the HER2 A775_G776insYVMA mutant activity was” for “against the EGFR activity was”, “μL of a HER2 A775_G776insYVMA mutant enzyme” for “μL of an EGFR mutant enzyme”
as §6

Compound | pIC50 (Ba/F3 EGFR del19) | pIC50 (Ba/F3 EGFR del19/T790M) | pIC50 [1] | pIC50 (Ba/F3 EGFR L858R) | pIC50 (Ba/F3 EGFR L858R/T790M) | pIC50 [2] | pIC50 (EGFR A763_Y764insFHEA) | pIC50 [3] | pIC50 (HER2 A775_G776insYVMA)
CCS(=O)(=O)N1CCc2cccc(Nc3nc(Nc4ccc(N5CCC(N6CCN(C)CC6)CC5)cc4OC)ncc3Cl)c21 [Example 13, 5-chloro-N4-(1-(ethylsulfonyl)indolin-7-yl)-N2-(2-methoxy-4-(4-(4-methylpiperazin-1-yl)piperidin-1-yl)phenyl)pyrimidine-2,4-diamine] | > 7.00 | < 7.00 | < 7.00 | < 7.00 | < 7.00 | < 7.00 | 7.04 | < 7.00 | 7.59
COc1cc(N2CCC(N3CCN(C)CC3)CC2)ccc1Nc1ncc(Cl)c(Nc2cccc3c2N(C(C)=O)CC3)n1 [Example 12, 1-(7-((5-chloro-2-((2-methoxy-4-(4-(4-methylpiperazin-1-yl)piperidin-1-yl)phenyl)amino)pyrimidin-4-yl)amino)indolin-1-yl)ethan-1-one] | > 7.00 | < 7.00 | < 7.00 | < 7.00 | < 7.00 | < 7.00 | 6.75 | < 7.00 | 7.60
CCC(=O)N1CCc2cccc(Nc3nc(Nc4ccc(N5CCC(N6CCN(C)CC6)CC5)cc4OC)ncc3Cl)c21 [Example 14, 1-(7-((5-chloro-2-((2-methoxy-4-(4-(4-methylpiperazin-1-yl)piperidin-1-yl)phenyl)amino)pyrimidin-4-yl)amino)indolin-1-yl)propan-1-one] | > 7.00 | < 7.00 | < 7.00 | < 7.00 | < 7.00 | < 7.00 | < 7.00 | < 7.00 | < 7.00
COc1cc(N2CCC(N3CCN(C)CC3)CC2)ccc1Nc1ncc(Cl)c(Nc2cccc3c2N(C(C)=O)CCC3)n1 [Example 15, 1-(8-((5-chloro-2-((2-methoxy-4-(4-(4-methylpiperazin-1-yl)piperidin-1-yl)phenyl)amino)pyrimidin-4-yl)amino)-3,4-dihydroquinolin-1(2H)-yl)ethan-1-one] | < 7.00 | < 7.00 | < 7.00 | < 7.00 | < 7.00 | < 7.00 | < 7.00 | < 7.00 | 6.23

Second part, the compound after the results:

pIC50 (Ba/F3 EGFR del19) | pIC50 (Ba/F3 EGFR del19/T790M) | pIC50 [1] | pIC50 (Ba/F3 EGFR L858R) | pIC50 (Ba/F3 EGFR L858R/T790M) | pIC50 [2] | pIC50 (EGFR A763_Y764insFHEA) | pIC50 [3] | pIC50 (HER2 A775_G776insYVMA) | Compound
< 7.00 | < 7.00 | < 7.00 | < 7.00 | < 7.00 | < 7.00 | < 7.00 | < 7.00 | < 7.00 | CCC(=O)N1CCCc2cccc(Nc3nc(Nc4ccc(N5CCC(N6CCN(C)CC6)CC5)cc4OC)ncc3Cl)c21 [Example 16, 1-(8-((5-chloro-2-((2-methoxy-4-(4-(4-methylpiperazin-1-yl)piperidin-1-yl)phenyl)amino)pyrimidin-4-yl)amino)-3,4-dihydroquinolin-1(2H)-yl)propan-1-one]
> 7.00 | > 7.00 | < 7.00 | > 7.00 | < 7.00 | < 7.00 | 7.70 | < 7.00 | 8.40 | COc1cc(N2CCC(N3CCNCC3)CC2)ccc1Nc1ncc(Cl)c(Nc2cccc3c2N(S(C)(=O)=O)CC3)n1 [Example 17, 5-chloro-N2-(2-methoxy-4-(4-(piperazin-1-yl)piperidin-1-yl)phenyl)-N4-(1-(methylsulfonyl)indolin-7-yl)pyrimidine-2,4-diamine]
